Experimental data as given in PubChem BioAssay (NCI).
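Protocol summary: plate cells (96-well), add compound at 5 concentrations, incubate 48 h, interpolate endpoints linearly. TGI denotes the concentration required for complete inhibition of growth.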

Tests used:
Experiment in all cases: NCI-60 cell line screen, 48 h
786-0 renal = system: 786-0 renal
CAKI-1 renal = system: CAKI-1 renal
EKVX NSCLC = system: EKVX NSCLC
HCC-2998 colon = system: HCC-2998 colon
HCT-116 colon = system: HCT-116 colon
HS 578T breast = system: HS 578T breast
K-562 leukemia = system: K-562 leukemia
KM12 colon = system: KM12 colon
MDA-MB-435 = system: MDA-MB-435
MOLT-4 leukemia = system: MOLT-4 leukemia
NCI-H23 lung = system: NCI-H23 lung
NCI-H522 lung = system: NCI-H522 lung
RPMI-8226 leukemia = system: RPMI-8226 leukemia
SK-MEL-2 melanoma = system: SK-MEL-2 melanoma
SK-MEL-28 melanoma = system: SK-MEL-28 melanoma
SR leukemia = system: SR leukemia
UACC-257 melanoma = system: UACC-257 melanoma
SF-539 CNS = system: SF-539 CNS
NCI/ADR-RES ovarian = system: NCI/ADR-RES ovarian
T-47D breast = system: T-47D breast

Row | Compound | TGI (786-0 renal) [µM] | TGI (CAKI-1 renal) [µM] | TGI (EKVX NSCLC) [µM] | TGI (HCC-2998 colon) [µM] | TGI (HCT-116 colon) [µM] | TGI (HS 578T breast) [µM] | TGI (K-562 leukemia) [µM] | TGI (KM12 colon) [µM] | TGI (MDA-MB-435) [µM] | TGI (MOLT-4 leukemia) [µM] | TGI (NCI-H23 lung) [µM] | TGI (NCI-H522 lung) [µM] | TGI (RPMI-8226 leukemia) [µM] | TGI (SK-MEL-2 melanoma) [µM] | TGI (SK-MEL-28 melanoma) [µM] | TGI (SR leukemia) [µM] | TGI (UACC-257 melanoma) [µM] | TGI (SF-539 CNS) [µM] | TGI (NCI/ADR-RES ovarian) [µM] | TGI (T-47D breast) [µM]
1 | CN=c1nc2sc3c(c2c(NC(=S)NC)s1)CCCC3 | > 100 | > 100 | > 100 | > 100 | > 100 | 97.4 | > 100 | > 100 | > 100 | > 100 | > 100 | > 100 | > 100 | > 100 | > 100 | > 100 | > 100 | – | – | –
2 | CC1(C)COC(c2cccnc2/C=N/O)=N1 | > 100 | > 100 | > 100 | – | > 100 | – | > 100 | > 100 | – | > 100 | > 100 | > 100 | – | > 100 | > 100 | > 100 | > 100 | > 100 | – | –
3 | CC(C)C(=O)[C@@]1(C)SC[C@H]2CCN=C21 | > 100 | > 100 | > 100 | > 100 | > 100 | > 100 | > 100 | > 100 | > 100 | > 100 | > 100 | > 100 | > 100 | – | > 100 | > 100 | > 100 | > 100 | > 100 | –
4 | OCC1OC(c2cccc3cc(O)c(O)cc23)CC1O (stereo not drawn) | > 100 | – | > 100 | > 100 | > 100 | > 100 | > 100 | > 100 | > 100 | > 100 | – | > 100 | > 100 | > 100 | > 100 | – | > 100 | > 100 | > 100 | > 100
5 | CCOC(=O)C1(C#N)C(c2ccccc2)CC(O)(c2ccc(OC)cc2)C(C(=O)c2ccc(OC)cc2)C1c1ccccc1 (stereo not drawn) | > 100 | > 100 | > 100 | > 100 | > 100 | – | > 100 | > 100 | – | > 100 | > 100 | > 100 | > 100 | > 100 | > 100 | > 100 | > 100 | – | – | –
6 | COc1ccc(C2C(Cl)C(=O)N2n2cnc3ccccc3c2=O)cc1 (stereo not drawn) | > 100 | > 100 | > 100 | > 100 | > 100 | – | > 100 | > 100 | – | > 100 | > 100 | > 100 | > 100 | > 100 | > 100 | > 100 | > 100 | – | – | –
7 | Cc1cc(N)c(C)c2c1[nH]c1ccc(O)cc12 | > 100 | > 100 | > 100 | > 100 | > 100 | – | > 100 | > 100 | – | > 100 | > 100 | 41.1 | > 100 | > 100 | > 100 | > 100 | > 100 | > 100 | – | –
8 | COc1cc(C(=O)n2c3ccc(Br)cc3c3nc4ccccc4nc32)cc(OC)c1OC | > 100 | > 100 | > 100 | > 100 | > 100 | – | > 100 | > 100 | > 100 | > 100 | > 100 | > 100 | > 100 | > 100 | > 100 | > 100 | > 100 | > 100 | > 100 | > 100
9 | NC1CC(=O)c2c(Br)csc21 (stereo not drawn) | > 100 | > 100 | > 100 | 44.8 | > 100 | – | > 100 | > 100 | 66.3 | > 100 | – | – | > 100 | > 100 | 79.9 | > 100 | > 100 | > 100 | > 100 | > 100
10 | Cc1cc(C)nc(NC(=O)c2ccc(Br)s2)c1 | > 100 | > 100 | > 100 | > 100 | > 100 | – | > 100 | > 100 | > 100 | > 100 | > 100 | > 100 | 16.6 | > 100 | > 100 | > 100 | > 100 | > 100 | > 100 | > 100
11 | CC(C)(C)OC(=O)N1CCc2[nH][nH]c(=O)c2C1 | > 100 | > 100 | > 100 | – | > 100 | > 100 | > 100 | > 100 | > 100 | > 100 | > 100 | > 100 | > 100 | – | > 100 | > 100 | > 100 | > 100 | > 100 | –
12 | COc1cc(OC)c(-c2ccc(OCc3ccccc3)c3c(OC)cc(C)cc23)c2c1C(C)=N[C@H](C)C2 | 3.8 | > 12.5 | 4.39 | – | 3.97 | 4.41 | 3.43 | 4.07 | 4.12 | 4.28 | 4.23 | 3.6 | 3.61 | 4.09 | 4.38 | 3.08 | 3.91 | 4.32 | 3.92 | –
13 | O=Cc1cn(CCCCCCCCCCCCn2cc(C=O)c3ccccc32)c2ccccc12 | > 100 | > 100 | > 100 | > 100 | > 100 | > 100 | > 100 | – | > 100 | > 100 | > 100 | > 100 | – | > 100 | > 100 | > 100 | > 100 | > 100 | > 100 | –
14 | COc1cc(C2SCC(=O)N2c2ccccn2)cc(OC)c1OC (stereo not drawn) | > 100 | > 100 | > 100 | > 100 | > 100 | > 100 | > 100 | > 100 | 77.6 | > 100 | > 100 | > 100 | > 100 | > 100 | > 100 | > 100 | > 100 | > 100 | > 100 | –
15 | CNc1ccc(C(=O)CC(O)CCC(C)C2OC(=O)CC(O)CC(=O)CC(O)CC(O)CC(O)CC(O)CC3(O)CC(O)C(C(=O)NCCN(C)C)C(CC(OC4OC(C)C(O)C(NC(=O)CN5CCN(C)CC5)C4O)/C=C/C=C/C=C/C=C\C=C/C=C/C=C/C2C)O3)cc1 (stereo not drawn) | > 100 | > 100 | – | – | – | – | > 100 | – | > 100 | > 100 | > 100 | – | – | > 100 | 45.7 | – | 71 | > 100 | > 100 | > 100
16 | COc1cc2cc3c4c(cc(OC)c(OC)c4c2cc1OC)CCN3C(=O)OCCN1CCNCC1 | 23.8 | 28.5 | 28.6 | 29.8 | 24.2 | – | 31.2 | 28.3 | – | 34.8 | 31.8 | 30.6 | 34.6 | 34.2 | 36.6 | 29.8 | 29.1 | 28.4 | – | –
17 | O=c1[nH]c2c(nc1NC13CC4CC(CC(C4)C1)C3)c(=O)oc1ccccc12 | > 100 | 46 | > 100 | > 100 | > 100 | – | > 100 | > 100 | – | > 100 | > 100 | > 100 | > 100 | > 100 | > 100 | > 100 | > 100 | 35.8 | – | –
18 | COc1ccccc1/C(=N\OCCC(=O)O)c1cccs1 | > 100 | > 100 | > 100 | > 100 | > 100 | > 100 | > 100 | > 100 | > 100 | > 100 | > 100 | – | > 100 | > 100 | > 100 | – | > 100 | > 100 | > 100 | > 100
19 | COc1cc(C(Cc2ccccc2)NC(C)=O)oc(=O)c1 (stereo not drawn) | > 100 | > 100 | > 100 | > 100 | – | – | > 100 | > 100 | – | – | > 100 | > 100 | > 100 | > 100 | > 100 | – | > 100 | – | – | –
20 | CS(=O)(=O)O[C@H]1CN2C[C@@H](O)[C@@H](O)[C@H]2[C@H]1CO | > 100 | > 100 | > 100 | > 100 | > 100 | – | > 100 | > 100 | > 100 | > 100 | > 100 | – | > 100 | > 100 | > 100 | > 100 | > 100 | > 100 | > 100 | > 100
21 | O=C(C=P(c1ccccc1)(c1ccccc1)c1ccccc1)c1ccc(-c2cccc([N+](=O)[O-])c2)s1 | > 100 | > 100 | > 100 | > 100 | > 100 | > 100 | > 100 | > 100 | > 100 | 55.6 | > 100 | > 100 | 54.9 | – | > 100 | > 100 | – | > 100 | > 100 | –
22 | CCN(CC)CCC(=O)/C=C/c1ccccc1 | 7.62 | 14.1 | 22.6 | 34.8 | 22.4 | 39.9 | 13.6 | 18.5 | 23.2 | 24.2 | 48.1 | 24.2 | 7.5 | 65.5 | 30.8 | 16.1 | 31.6 | 37.5 | 55.1 | –
23 | OC1(C(F)(F)F)OCCN=C1C(F)(F)F (stereo not drawn) | > 100 | > 100 | > 100 | > 100 | > 100 | 81.3 | > 100 | > 100 | > 100 | > 100 | > 100 | > 100 | > 100 | > 100 | > 100 | – | > 100 | – | > 100 | > 100
24 | CCCN=C(N)NC#N | 65.1 | > 100 | > 100 | > 100 | > 100 | – | > 100 | > 100 | – | > 100 | > 100 | > 100 | > 100 | > 100 | > 100 | 77.2 | > 100 | > 100 | – | –
25 | CCc1cc2c(oc3cc4ccccc4cc32)c(=O)[nH]1 | > 10 | – | > 10 | > 10 | > 10 | > 10 | – | > 10 | – | – | – | > 10 | – | > 10 | – | > 10 | > 10 | > 10 | > 10 | –
26 | Nc1ccc2c(c1)N(C(=O)c1cc3cc(NC(=O)c4cc5ccccc5o4)ccc3[nH]1)CC2CCl (stereo not drawn) | > 37.9 | 12.9 | – | – | > 32.2 | 0.696 | – | 2.37 | 0.512 | > 100 | 0.161 | – | 0.287 | 0.398 | 0.502 | – | – | – | 0.338 | 0.683
27 | O=c1[nH]c(=O)n(C2OC(CO)C(O)C2O)cc1NN=NCc1ccccc1 (stereo not drawn) | > 100 | > 100 | > 100 | > 100 | > 80.1 | – | > 100 | > 100 | – | > 100 | > 100 | > 100 | > 76.2 | > 100 | > 100 | > 100 | > 100 | > 100 | – | –
28 | N#Cc1c(-c2ccc(Cl)cc2)c2c([nH]c1=O)-c1ccccc1SC2 | > 100 | > 100 | 70.8 | – | > 100 | > 100 | > 100 | > 100 | > 100 | 94.8 | > 100 | – | 98.8 | > 100 | > 100 | > 100 | > 100 | 68 | > 100 | –
